Source: patent US5989521A, “Method for augmenting a decreased level of reduced glutathione in the lung” (The United States of America as represented by the …, priority 1991, dated 1999)
Where two headings read alike, the source gives them in different places.

Columns and labels:
alveolar macrophages = settings: 600 mg twice daily for 3 days, 1 hr after last dose, all individuals (p=0.02)
Protocol: (§1) Ten individuals with IPF (6 male, 4 female, 46±3 yr) defined by standard clinical criteria (Crystal, R. G. et al. (1984) N. Engl. J. Med. 310: 154-166, and 310: 235-244; Turner-Warwick, M. et al. (1980) Thorax. 35: 171-180) received aerosolized GSH; 19 normal nonsmokers (14 male, 5 female, 36±3 yr) (Buhl, R. et al. (1989) Lancet. 2: 1294-1298) served as controls for GSH levels. […] An aerosol of 600 mg GSH was administered every 12 hr for 3 days. Respiratory ELF, obtained by lavage, was evaluated before therapy, and 1 hr after the first or last (sixth) aerosol, and plasma before and 1 hr after the last aerosol. Total glutathione, oxidized glutathione (GSSG) and reduced glutathione (GSH) levels in ELF and plasma were quantified as previously described (Buhl, R. et al. (1990) Proc. Natl. Acad. Sci. USA. 87:4063-4067; Buhl, R. et al. (1989) Lancet. 2: 1294-1298). Spontaneous O2^- release from adherent alveolar macrophages was measured by the reduction of ferricytochrome C (Buhl, R. et al. (1990) Proc. Natl. Acad. Sci. USA. 87:4063-4067). All data are presented as mean ± standard error of the mean. The two-tailed Student's t-test was used to compare ELF glutathione levels in normal and IPF individuals and the results presented as exact p values and degrees of freedom (df). The Wilcoxon paired nonparametric test was used to compare pre- and post-aerosol therapy ELF GSH levels and spontaneous O2^- release by alveolar macrophages, and the results presented as exact p values.

[1] = remark: listed apart in the source
Protocol: as §1

[2] = in vivo
Text: To evaluate possible toxicity of the glutathione aerosol, symptoms, physical examination, routine blood studies, chest x-ray, electrocardiogram, renal function, arterial blood gases, and tests of pulmonary function (forced vital capacity, forced expiratory volume in one second, total lung capacity, diffusing capacity) were followed carefully throughout the study. In addition, visual examination of the respiratory mucosa and analysis of differential cell count in bronchoalveolar lavage fluid were performed before the first aerosol and after administration of the last aerosol.
Study Design. Venous plasma and bronchoalveolar lavage fluid were obtained before GSH administration. An aerosol of 600 mg GSH in 4 ml of saline was then administered over a 25 min period twice a day for three days. Following the last aerosol, venous plasma and bronchoalveolar lavage fluid were again obtained at intervals up to 3 hr after the last aerosol. All measurements were carried out in duplicate.

[3] = test system: cytotoxic T-lymphocyte cell line CTLL-2; settings: 0.3 units/ml IL-2
Protocol: (§2) T-lymphocyte Proliferation Assays. Cell proliferation in the presence of pre-aerosol compared to post-aerosol concentrations of reduced glutathione was tested on the cytotoxic T-lymphocyte cell lines CT-4R and CTLL-2 (Liang, C-M. et al. (1989) J Biol Chem 264:13519-13523). In 96-well flat bottom plates were placed 50,000 cells of the respective cell lines, suspended in 200 μl Dulbecco's Modified Eagle Medium with 10% fetal calf serum, with either 150 μM or 280 μM reduced glutathione added. The IL-2 dependent cell line CTLL-2 had 0.3 units/ml IL-2 (Genzyme) added in each well. After 18 hr culture in a 10% CO2 incubator at 37° C., 0.5 μCi of ^3 H-thymidine was added for 4 hr, followed by harvesting of cells onto glass fiber filters and scintillation counting for 1 minute. All proliferation assays were done in triplicate.

[4] = test system: cytotoxic T-lymphocyte cell line CT-4R
Protocol: as §2

[5] = preparation reconstituted in 0.9% saline; cited from earlier work
[6] = intravenous administration; cited from earlier work
[7] = in vivo; remark: listed apart in the source
Text: Study Population. The study population included 13 male and 1 female HIV-seropositive individuals (average age 32±2 yr)(all data are presented as mean ± standard error of the mean; all statistical comparisons were made using the two-tailed Student's t-test). The diagnosis of HIV infection was confirmed by ELISA and Western blot analysis. All belonged to defined risk groups (13 homosexuals, 1 with heterosexual contact with an infected partner). None were smokers, 9 were untreated, and 5 were receiving azidothymidine, and two were receiving once monthly pentamidine by aerosol.
Biologic Samples. Venous plasma and bronchoalveolar lavage fluid were obtained by standard technique (Saltini, C. et al. (1984) Am Rev Resp Dis 130:650-658). Portions of the lavage fluid were taken for glutathione assays (see below), cell counts (total cell and CD4+ and CD8+ subtypes), and for cytocentrifuge preparations for differential counts. The cells were pelleted and the supernatant was used to quantify the amount of ELF recovered using the urea method (Rennard, S.I. et al. (1986) J Appl Physiol 60:532-538).
Study Design. […]
Glutathione Levels and Form. Glutathione levels in venous plasma, and bronchoalveolar lavage fluid were quantified with minor modifications of standard methods, as previously described (Buhl, R. et al (1989) Lancet 2:1294-1298).

## N[C@@H](CCC(=O)N[C@@H](CS)C(=O)NCC(=O)O)C(=O)O [GSH, L-γ-glutamyl-L-cysteinyl-glycine]
150 mg/ml GSH in 0.9% NaCl, nebulizer at 40 psi, laser particle-size analysis
  mass median aerodynamic diameter of the aerosol droplets: 2.8 μm
In the aerosolized droplets
  glutathione in the reduced form: 97.0±0.6%
pre-aerosol preparations
  glutathione in the reduced form: 98.2±0.1%
Alveolar macrophages
  spontaneous O2- release by alveolar macrophages: decrease
[1]; 600 mg every 12 hr for 3 days
  adverse effects associated with GSH aerosol administration: No adverse effects
[1]; 600 mg twice daily for 3 days, 1 hr after last dose, all individuals (p=0.02)
  ELF oxidized glutathione compared to baseline: significant increase
[1]; 1 hr after the first aerosol of 600 mg GSH (p=0.005)
  total glutathione in ELF versus pre-therapy: increased
[1]; 1 hr after the last aerosol (p=0.59)
  plasma glutathione levels following aerosolization: did not change
[1]; after repeated dosing for 3 days, 1 hr after last aerosol (p=0.55)
  average level of total glutathione in ELF versus pre-therapy: higher than the pre-therapy level, but not significantly so
[2]
  inflammation of the lower respiratory tract: did not result in inflammation
  physical examination and all clinical studies: remained stable
  pulmonary function tests and arterial blood gases: unchanged
[3]; CTLL-2, 150 μM reduced glutathione
  proliferation (3H-thymidine incorporation): 5077±69 cpm
[3]; CTLL-2, 280 μM reduced glutathione
  proliferation (3H-thymidine incorporation): 5792±219 cpm
[4]; 150 μM reduced glutathione (pre-therapy concentration)
  proliferation (3H-thymidine incorporation): 7478±550 cpm
[4]; 280 μM reduced glutathione (post-therapy concentration)
  proliferation (3H-thymidine incorporation): 10,752±376 cpm
[5]
  effect of aerosolization on the form of the GSH: did not alter the form
[6]
  serum half-life: < 2 min
[7]
  oxidized glutathione as percentage of total glutathione in ELF: 44±18%
